Assays:
Format in all cases: cell-based
[1] = tested on: 55 to 60 cancer cell lines; conditions: 10 μM; for Mean (mean growth percentage of the tested cancer cell lines): 48 hours, all tested cell lines
K-562 = test: cells; conditions: K-562 (Leukemia), 10 μM, 48 hours
M14 = test: cells; conditions: M14 (Melanoma), 10 μM, 48 hours
MDA-MB-435 = test: cells; conditions: MDA-MB-435 (Melanoma), 10 μM, 48 hours
NCI-H322M = test: cells; conditions: NCI-H322M (Non-Small Cell Lung Cancer), 10 μM, 48 hours
IGROV1 = test: cells; conditions: IGROV1 (Ovarian Cancer), 10 μM, 48 hours
HL-60 (TB) = test: cells; conditions: HL-60 (TB) (Leukemia), 10 μM, 48 hours
UACC-257 = test: cells; conditions: UACC-257 (Melanoma), 10 μM, 48 hours
A549/ATCC = test: cells; conditions: A549/ATCC (Non-Small Cell Lung Cancer), 10 μM, 48 hours
SF-268 = test: cells; conditions: SF-268 (CNS Cancer), 10 μM, 48 hours
SW-620 = test: cells; conditions: SW-620 (Colon Cancer), 10 μM, 48 hours
NCI-H23 = test: cells; conditions: NCI-H23 (Non-Small Cell Lung Cancer), 10 μM, 48 hours
UACC-62 = test: cells; conditions: UACC-62 (Melanoma), 10 μM, 48 hours
NCI-H226 = test: cells; conditions: NCI-H226 (Non-Small Cell Lung Cancer), 10 μM, 48 hours
SF-295 = test: cells; conditions: SF-295 (CNS Cancer), 10 μM, 48 hours
CCRF-CEM = test: cells; conditions: CCRF-CEM (Leukemia), 10 μM, 48 hours
DU-145 = test: cells; conditions: DU-145 (Prostate Cancer), 10 μM, 48 hours
PC-3 = test: cells; conditions: PC-3 (Prostate Cancer), 10 μM, 48 hours
NCI-H522 = test: cells; conditions: NCI-H522 (Non-Small Cell Lung Cancer), 10 μM, 48 hours
SK-MEL-5 = test: cells; conditions: SK-MEL-5 (Melanoma), 10 μM, 48 hours
ACHN = test: cells; conditions: ACHN (Renal Cancer), 10 μM, 48 hours
CAKI-1 = test: cells; conditions: CAKI-1 (Renal Cancer), 10 μM, 48 hours
BT-549 = test: cells; conditions: BT-549 (Breast Cancer), 10 μM, 48 hours
786-0 = test: cells; conditions: 786-0 (Renal Cancer), 10 μM, 48 hours
SF-539 = test: cells; conditions: SF-539 (CNS Cancer), 10 μM, 48 hours
U251 = test: cells; conditions: U251 (CNS Cancer), 10 μM, 48 hours
TK-10 = test: cells; conditions: TK-10 (Renal Cancer), 10 μM, 48 hours
RPMI-8226 = test: cells; conditions: RPMI-8226 (Leukemia), 10 μM, 48 hours
COLO 205 = test: cells; conditions: COLO 205 (Colon Cancer), 10 μM, 48 hours
HCC-2998 = test: cells; conditions: HCC-2998 (Colon Cancer), 10 μM, 48 hours
SNB-19 = test: cells; conditions: SNB-19 (CNS Cancer), 10 μM, 48 hours
LOX IMVI = test: cells; conditions: LOX IMVI (Melanoma), 10 μM, 48 hours
SR = test: cells; conditions: SR (Leukemia), 10 μM, 48 hours

Structure (SMILES) | Mean (mean growth percentage of the tested cancer cell lines) [1] [%] | growth percentage (K-562) [%] | growth percentage (M14) [%] | growth percentage (MDA-MB-435) [%] | growth percentage (NCI-H322M) [%] | growth percentage (IGROV1) [%] | growth percentage (HL-60 (TB)) [%] | growth percentage (UACC-257) [%] | growth percentage (A549/ATCC) [%] | growth percentage (SF-268) [%] | growth percentage (SW-620) [%] | growth percentage (NCI-H23) [%] | growth percentage (UACC-62) [%] | growth percentage (NCI-H226) [%] | growth percentage (SF-295) [%] | growth percentage (CCRF-CEM) [%] | growth percentage (DU-145) [%] | growth percentage (PC-3) [%] | growth percentage (NCI-H522) [%] | growth percentage (SK-MEL-5) [%] | further results
O=C1c2cc(Cl)ccc2-c2c(SCCO)nc3ccccc3c21 [SJ-25, 6-(2-Hydroxyethylthio)-9-chloro-11H-indeno[1,2-c]quinolin-11-one] | 79.52 | 63.81 | 98.89 | 95.15 | 73.47 | 69.73 | 91.75 | 106.91 | 76.42 | 96.53 | 86.99 | 66.22 | 84.47 | 80.52 | 73.28 | 71.56 | 92.27 | 58.35 | 68.89 | 68.56 | growth percentage (ACHN): 88.12%; growth percentage (CAKI-1): 41.86%; growth percentage (BT-549): 92.88%; growth percentage (786-0): 100.58%; growth percentage (SF-539): 100.05%; growth percentage (U251): 78.04%; growth percentage (TK-10): 99.82%; growth percentage (RPMI-8226): 62.28%; growth percentage (COLO 205): 87.39%; growth percentage (HCC-2998): 96.27%; growth percentage (SNB-19): 89.19%; growth percentage (LOX IMVI): 68.41%; growth percentage (SR): 61.70%
O=C1c2cc(Cl)ccc2-c2c(O)nc3ccccc3c21 [SJ-26, 6-Hydroxy-9-chloro-11H-indeno[1,2-c]quinolin-11-one] | 96.60 | 97.48 | 108.50 | 100.35 | 90.72 | 91.28 | 102.31 | 106.31 | 104.88 | 106.64 | 95.26 | 81.56 | 95.17 | 85.66 | 92.48 | 105.78 | 111.80 | 93.44 | 92.22 | 84.87 | growth percentage (ACHN): 104.75%; growth percentage (CAKI-1): 71.62%; growth percentage (BT-549): 120.08%; growth percentage (786-0): 114.55%; growth percentage (SF-539): 105.79%; growth percentage (U251): 96.46%; growth percentage (TK-10): 126.63%; growth percentage (RPMI-8226): 90.60%; growth percentage (COLO 205): 98.25%; growth percentage (HCC-2998): 102.24%; growth percentage (SNB-19): 99.28%; growth percentage (LOX IMVI): 86.91%; growth percentage (SR): 77.02%
O=C1c2cc(Cl)ccc2-c2c(Cl)nc3ccccc3c21 [TC-XCl-1, 6,9-Dichloro-11H-indeno[1,2-c]quinolin-11-one] | 98.17 | 102.16 | 109.79 | 100.46 | 95.38 | 92.82 | 102.00 | 127.99 | 108.98 | 117.27 | 98.29 | 79.30 | 94.45 | 91.86 | 92.80 | 64.86 | 113.91 | 92.73 | 89.37 | 86.30 | number of cancer cell lines whose growth is inhibited ([1]; including leukemia and breast cancer cells): 9; growth percentage (ACHN): 111.67%; growth percentage (CAKI-1): 75.67%; growth percentage (BT-549): 119.62%; growth percentage (786-0): 112.40%; growth percentage (SF-539): 110.08%; growth percentage (U251): 100.63%; growth percentage (TK-10): 138.45%; growth percentage (RPMI-8226): 92.83%; growth percentage (COLO 205): 99.18%; growth percentage (HCC-2998): 98.52%; growth percentage (SNB-19): 101.30%; growth percentage (LOX IMVI): 84.23%; growth percentage (SR): 65.85%
